Activity calls are given as the source filed them. No cut-off for these calls is given here.
Legend:
[1] = system: MCF7; assay: Cytotoxicity against human MCF7 cells after 72 hrs by crystal violet staining; assay type: functional, cell-based; settings: MCF7, 72 h
[2] = system: Mus musculus; assay: Antiinflammatory activity in Kunming mouse assessed as inhibition of xylene-induced ear edema at 4 mg/kg, ip for 5 days relative to control; assay type: functional; settings: 120 h, route intraperitoneal
[3] = system: HT-29; assay: Cytotoxicity against human HT-29 cells after 72 hrs by crystal violet staining; assay type: functional, cell-based; settings: HT-29, 72 h
[4] = system: MDA-MB-231; assay: Cytotoxicity against human MDA-MB-231 cells after 72 hrs by crystal violet staining; assay type: functional, cell-based; settings: MDA-MB-231, 72 h
[5] = target: T1, Prostaglandin G/H synthase 1 (Ovis aries) (UniProt P05979); assay: Inhibition of isolated ovine COX-1 at 10 uM by ELISA
T1 sequence (whole entry): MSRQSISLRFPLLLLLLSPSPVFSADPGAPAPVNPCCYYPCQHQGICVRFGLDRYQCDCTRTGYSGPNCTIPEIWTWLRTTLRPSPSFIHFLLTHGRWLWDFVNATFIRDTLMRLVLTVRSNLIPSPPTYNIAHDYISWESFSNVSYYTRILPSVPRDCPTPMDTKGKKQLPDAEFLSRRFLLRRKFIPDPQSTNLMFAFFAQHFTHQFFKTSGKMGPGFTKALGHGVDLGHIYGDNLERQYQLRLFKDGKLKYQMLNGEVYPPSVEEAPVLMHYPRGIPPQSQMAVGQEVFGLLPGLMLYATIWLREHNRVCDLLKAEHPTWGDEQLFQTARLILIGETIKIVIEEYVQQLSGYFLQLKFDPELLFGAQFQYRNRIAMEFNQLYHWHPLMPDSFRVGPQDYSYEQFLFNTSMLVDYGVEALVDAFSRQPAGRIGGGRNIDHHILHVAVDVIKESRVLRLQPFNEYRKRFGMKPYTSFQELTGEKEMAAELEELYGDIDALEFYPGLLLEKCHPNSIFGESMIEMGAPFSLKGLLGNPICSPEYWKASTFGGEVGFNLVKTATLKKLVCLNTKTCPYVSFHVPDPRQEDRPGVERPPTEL

[6] = system: Mus musculus; assay: Antiinflammatory activity in Kunming mouse assessed as inhibition of xylene-induced ear edema at 30 mg/kg, ip for 5 days relative to control; assay type: functional; settings: 120 h, route intraperitoneal
[7] = system: MDA-MB-231; assay: Ratio of 5-fluorouracil IC50 to compound IC50 for human MDA-MB-231 cells; assay type: functional
[8] = system: HT-29; assay: Ratio of 5-fluorouracil IC50 to compound IC50 for human HT-29 cells; assay type: functional
[9] = system: MCF7; assay: Cytotoxicity against human MCF7 cells at 0.63 to 10 uM up to 140 hrs by crystal violet staining; assay type: functional, cell-based
[10] = system: MDA-MB-231; assay: Ratio of loratadine IC50 to compound IC50 for human MDA-MB-231 cells; assay type: functional
[11] = system: HT-29; assay: Cytotoxicity against human HT-29 cells at 0.63 to 10 uM up to 140 hrs by crystal violet staining; assay type: functional, cell-based
[12] = system: MCF7; assay: Ratio of loratadine IC50 to compound IC50 for human MCF7 cells; assay type: functional
[13] = system: MCF7; assay: Ratio of 5-fluorouracil IC50 to compound IC50 for human MCF7 cells; assay type: functional
[14] = system: HT-29; assay: Ratio of loratadine IC50 to compound IC50 for human HT-29 cells; assay type: functional

| Compound | IC50 [1] [µM] | inhibition in vivo at 4 mg/kg [2] [%] | IC50 [3] [µM] | IC50 [4] [µM] | further results |
| --- | --- | --- | --- | --- | --- |
| N#C/N=C(/NC1CCCCC1)N1CCC(=C2c3ccc(Cl)cc3CCc3cccnc32)CC1 | 3.9 | 17.4 | 4 | 1.9 | – |
| O=c1[nH]cc(F)c(=O)[nH]1 [FLUOROURACIL] | 4.7 | – | – | – | – |
| CCCCCN/C(=N/C#N)N1CCC(=C2c3ccc(Cl)cc3CCc3cccnc32)CC1 | 3.5 | 13 | 4.4 | 1.7 | – |
| COc1ccc2c(c1)c(CC(=O)O)c(C)n2C(=O)c1ccc(Cl)cc1 | – | – | – | – | inhibition [5]: 56% |
| N#C/N=C(/NCCc1ccccc1)N1CCC(=C2c3ccc(Cl)cc3CCc3cccnc32)CC1 | 2.3 | 13 | 3.2 | 2.6 | – |
| N#C/N=C(/NCCc1ccc2c(c1)OCO2)N1CCC(=C2c3ccc(Cl)cc3CCc3cccnc32)CC1 | 8 | 13 | 6.5 | 12.9 | – |
| COc1ccc(CCN/C(=N/C#N)N2CCC(=C3c4ccc(Cl)cc4CCc4cccnc43)CC2)cc1OC | 7.1 | 21.7 | 5.7 | 18.2 | – |
| CC(C)Cc1ccc(C(C)C(=O)O)cc1 (centres undefined) [IBUPROFEN] | – | 8.22 | – | – | inhibition in vivo at 30 mg/kg [6]: 39.1% |
| CC(N/C(=N/C#N)N1CCC(=C2c3ccc(Cl)cc3CCc3cccnc32)CC1)c1ccccc1 (centres undefined) | 4 | 26.1 | 3.7 | 6.9 | inhibition [5]: 4.9% |
| N#C/N=C(/NCc1ccccc1)N1CCC(=C2c3ccc(Cl)cc3CCc3cccnc32)CC1 | 2.9 | 13 | 3.1 | 2.7 | – |
| CCCCCCCCN/C(=N/C#N)N1CCC(=C2c3ccc(Cl)cc3CCc3cccnc32)CC1 | 1.4 | 15.6 | 2 | 4.1 | Ratio IC50 [7]: 2; Ratio IC50 [8]: 2; Activity [9]: Active; Ratio IC50 [10]: 2; Activity [11]: Active; Ratio IC50 [12]: 2; Ratio IC50 [13]: 2; Ratio IC50 [14]: 2 |
| CCCCN/C(=N/C#N)N1CCC(=C2c3ccc(Cl)cc3CCc3cccnc32)CC1 | 3.9 | 17.4 | 4 | 3.1 | – |
